Measurements from patent US20230288338A1, “LUMINESCENT SUBSTRATE COMPOUND” (NATIONAL INSTITUTE OF ADVANCED INDUSTRIAL SCIENCE AND …, priority 2020, published 2023).

Assays:
Format in all cases: biochemical
[1] = target: T1, bovine serum albumin (BSA) (Bos taurus, UniProt P02769); assay: Luminescence intensity measurement with bovine serum albumin; details: total luminescence over 60 seconds, normalized against native coelenterazine in HSA set to 1.0; 10 µM substrate solution, 10 mM PB buffer pH 7.4
T1 construct: bovine serum-derived lyophilized powder, Sigma-Aldrich; purchased Sigma-Aldrich; host or cells: purified from bovine serum
T1 sequence (P02769 25-607): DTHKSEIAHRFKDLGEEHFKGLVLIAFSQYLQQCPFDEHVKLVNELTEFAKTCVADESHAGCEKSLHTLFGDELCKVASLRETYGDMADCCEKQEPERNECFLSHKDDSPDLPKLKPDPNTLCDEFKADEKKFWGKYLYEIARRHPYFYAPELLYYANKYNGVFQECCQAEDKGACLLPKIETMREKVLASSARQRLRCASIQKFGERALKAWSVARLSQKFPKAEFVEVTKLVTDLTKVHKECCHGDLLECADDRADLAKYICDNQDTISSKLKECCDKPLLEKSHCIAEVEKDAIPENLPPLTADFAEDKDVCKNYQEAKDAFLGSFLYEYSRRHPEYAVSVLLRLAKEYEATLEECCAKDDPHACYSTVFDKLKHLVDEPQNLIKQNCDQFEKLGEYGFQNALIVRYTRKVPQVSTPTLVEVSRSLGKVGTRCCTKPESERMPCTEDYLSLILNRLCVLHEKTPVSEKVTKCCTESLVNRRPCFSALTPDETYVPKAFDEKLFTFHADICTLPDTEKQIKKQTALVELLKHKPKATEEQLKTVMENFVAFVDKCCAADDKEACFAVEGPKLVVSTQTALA
Procedure: (§1) Human serum albumin (human serum-derived lyophilized powder, Fatty acid free, Globulin free, Sigma-Aldrich), other human protein species or bovine serum albumin (bovine serum-derived lyophilized powder, Sigma-Aldrich) was dissolved in PB Buffer (10 mM, pH 7.4) and used directly for luminescence measurement. As luminescent substrates, NCTZ, DeepBlueC™, MCLA™, control compounds 1 to 3, HuLumino12 and HuLumino22 were used. Each luminescent substrate was dissolved in methanol to give a 2 mM solution. This solution was diluted to 10 µM with 10 mM PB buffer (pH 7.4) for use as a substrate solution. To 90 µL of this solution, 10 µL of 10 mM PB buffer (pH 7.4) containing human serum albumin (HSA) or bovine serum albumin (BSA) was added to initiate a luminescent reaction. The luminescence intensity was measured with a Promega GloMax® 20/20 for 60 seconds, and the results were expressed as total luminescence (Total Luminescence/min) and compared (FIG. 1). […]

HSA = target: T2, HSA (Homo sapiens, UniProt P02768); assay: Michaelis-Menten constant of luminescent substrate/HSA reaction
T2 construct: human serum-derived lyophilized powder, Fatty acid free, Globulin free, Sigma-Aldrich; purchased Sigma-Aldrich; host or cells: purified from human serum
T2 sequence (P02768 25-609): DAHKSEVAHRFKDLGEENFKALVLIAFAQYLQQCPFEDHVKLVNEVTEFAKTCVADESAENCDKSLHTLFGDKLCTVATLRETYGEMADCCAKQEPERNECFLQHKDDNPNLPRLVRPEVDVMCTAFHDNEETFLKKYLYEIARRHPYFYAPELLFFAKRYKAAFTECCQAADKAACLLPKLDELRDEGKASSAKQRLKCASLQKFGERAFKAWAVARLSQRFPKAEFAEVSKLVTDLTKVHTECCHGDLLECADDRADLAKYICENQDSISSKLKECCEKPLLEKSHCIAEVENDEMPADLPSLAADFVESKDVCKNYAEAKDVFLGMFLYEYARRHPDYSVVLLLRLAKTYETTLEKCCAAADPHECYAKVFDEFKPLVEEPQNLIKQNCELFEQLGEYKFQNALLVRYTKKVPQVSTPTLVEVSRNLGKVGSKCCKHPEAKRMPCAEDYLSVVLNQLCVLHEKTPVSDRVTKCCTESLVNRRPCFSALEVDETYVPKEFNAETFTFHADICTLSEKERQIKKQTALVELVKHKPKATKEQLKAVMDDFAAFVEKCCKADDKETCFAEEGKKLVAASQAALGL

[2] = target: T3, human serum albumin (HSA) (Homo sapiens, UniProt P02768); assay: Luminescence intensity measurement with human serum albumin; details: for HSA Luminescence intensity: total luminescence over 60 seconds, normalized against native coelenterazine in HSA set to 1.0, 10 µM substrate solution, 10 mM PB buffer pH 7.4
T3 construct: human serum-derived lyophilized powder, Fatty acid free, Globulin free, Sigma-Aldrich; purchased Sigma-Aldrich; host or cells: purified from human serum
T3 sequence (P02768 25-609): as above
Procedure: as §1

[3] = target: T3, human serum albumin (HSA); assay: Signal to noise ratio of luminescence in the presence of HSA (FIG. 3); details: luminescent reaction with HSA; for S/N ratio: FIG. 3
Excerpt: FIG. 3 is a graph showing the luminescence property (signal to noise ratio, S/N ratio) of compounds according to examples of the present invention and comparative examples in the presence of human serum albumin (HSA).

[4] = target: T3, human serum albumin (HSA); assay: Luminescence spectrum measurement in the presence of HSA (FIG. 6)
Procedure: FIG. 6 is a graph showing the luminescence wavelength (luminescence spectrum measurement result) of HuLumino12 (a compound according to an example of the present invention) in the presence of human serum albumin (HSA).
The luminescence spectrum was measured with a spectrometer. The peak luminescence wavelength was obtained by being normalized against the peak luminescence intensity which was set to 1.0.

[5] = target: T3, human serum albumin (HSA); assay: Luminescence duration in the presence of HSA (FIG. 4); details: luminescent reaction with HSA
Excerpt: FIG. 4 is a graph showing the luminescence property (luminescence duration) of HuLumino12 (a compound according to an example of the present invention) in the presence of human serum albumin (HSA).

[6] = system: various human-derived proteins; assay: Luminescence intensity upon reaction with various human-derived proteins or bovine serum albumin (FIG. 2)
Procedure: FIG. 2 is a graph showing the luminescence intensity of HuLumino12 (a compound according to an example of the present invention) upon reaction with various human-derived proteins or bovine serum albumin.
as §1

[7] = target: T3, human serum albumin (HSA); assay: HSA concentration-dependent luminescence intensity, detection limit (FIG. 5)
Excerpt: FIG. 5 is a graph showing the luminescence intensity of HuLumino12 (a compound according to an example of the present invention), which is dependent on the concentration of human serum albumin (HSA).

BSA Luminescence intensity [1] | HSA Luminescence intensity [2] | Compound | other results
3.9 | 1.0 | O=c1c(Cc2ccc(O)cc2)nc2c(Cc3ccccc3)[nH]c(-c3ccc(O)cc3)cn1-2 [NCTZ, reference compound] | Michaelis-Menten constant (HSA): 25.3 µM
3.1 | 14.2 | COCCCOc1ccc(-c2cn3c(=O)c(C)nc-3c[nH]2)cc1 [HuLumino22, 6-(4-(3-methoxypropoxy)phenyl)-2-methylimidazo[1,2-a]pyrazin-3(7H)-one] | –
9.8 | 61.3 | O=c1c(Cc2ccccc2)nc2c[nH]c(/C=C/c3ccccc3)cn1-2 [HuLumino45, (E)-2-benzyl-6-styrylimidazo[1,2-a]pyrazin-3(7H)-one] | –
34.4 | 554 | COc1ccc(-c2cn3c(=O)c(Cc4ccccc4)nc-3c[nH]2)cc1 [Control compound 3, reference compound] | –
5.2 | 206 | O=c1c(Cc2ccccc2)nc2c[nH]c(/C=C/c3ccc(-c4ccccc4)cc3)cn1-2 [HuLumino44, (E)-6-(2-([1,1′-biphenyl]-4-yl)vinyl)-2-benzylimidazo[1,2-a]pyrazin-3(7H)-one] | S/N ratio relative to that of HuLumino12 [3]: approximately 4 fold; S/N ratio [3]: 150
19.2 | 154 | COc1ccc(/C=C/c2cn3c(=O)c(Cc4ccccc4)nc-3c[nH]2)cc1 [HuLumino30, (E)-2-benzyl-6-(4-methoxystyryl)imidazo[1,2-a]pyrazin-3(7H)-one] | –
34.3 | 51.5 | COCCCOc1ccc(-c2cn3c(=O)c(Cc4ccccc4)nc-3c(Cc3ccccc3)[nH]2)cc1 [BBlue2.3, reference compound] | –
11.2 | 13.7 | O=c1c(Cc2ccccc2)nc2c[nH]c(-c3ccc(O)cc3)cn1-2 [Control compound 2, reference compound] | –
11.9 | 912 | COCCCOc1ccc(-c2cn3c(=O)c(Cc4ccccc4)nc-3c[nH]2)cc1 [HuLumino12, 2-benzyl-6-(4-(3-methoxypropoxy)phenyl)imidazo[1,2-a]pyrazin-3(7H)-one] | peak luminescence wavelength [4]: 427 nm; luminescence duration [5]: 3 h; Michaelis-Menten constant (HSA): 4.2 µM; S/N ratio [3]: 37; specificity of luminescent reaction among various human protein species [6]: specific luminescent reaction when recognized by human serum albumin (HSA); detection limit of HSA detection [7]: 7.4 µg/mL; luminescence intensity higher than NCTZ/HSA ([2]; with HSA, relative to NCTZ/HSA): 912 fold
7.6 | 22.1 | O=c1c(Cc2ccccc2)nc2c(Cc3ccccc3)[nH]c(-c3ccccc3)cn1-2 [DeepBlueC™, reference compound] | –

Compound | BSA Luminescence intensity [1] | HSA Luminescence intensity [2] | other results
COc1ccc(-c2cn3c(=O)c(C)nc-3c[nH]2)cc1 [MCLA™, reference compound] | 1.8 | 14.1 | –
